The source of these data is US20110086759A1, “CHEMICAL COMPOUNDS” (SYNGENTA CROP PROTECTION, INC., priority 2007, published 2011).

Structures are written as SMILES.

Holding throughout (format): in vivo
The test system of test [1] is Amaranthus retoflexus (AMARE). The test is described as follows: Post-emergence biological efficacy, glasshouse pot test. The note with it: Amaranthus retroflexus, 312 h; Rate 1,000 g/ha; post-emergence spray; evaluated after 13 days (100=total damage to plant; 0=no damage to plant); read-out: Percentage damage caused to weed species, post-emergence, AMARE. Put shortly:
(§1)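 Plants were sown in standard soil and grown 8 days in a glasshouse (24/16° C. day/night, 14 hours light, 65% humidity), then sprayed post-emergence at 1000 or 250 g/ha from acetone/water (50:50) with 0.5% Tween 20. Damage was scored visually after 13 days (0 = none, 100 = total).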

Test [2] deals with Ipomea hederaceae (IPOHE). The test is described as above. The conditions noted are these: Ipomoea hederacea, 312 h; Rate 1,000 g/ha; post-emergence spray; evaluated after 13 days (100=total damage to plant; 0=no damage to plant); read-out: Percentage damage caused to weed species, post-emergence, IPOHE. Put shortly: as §1
In test [3] the test system is Setaria faberi (SETFA). The description is as above. The note with it: 312 h, Rate 1,000 g/ha, post-emergence spray, evaluated after 13 days (100=total damage to plant; 0=no damage to plant), read-out: Percentage damage caused to weed species, post-emergence, SETFA. Put shortly: as §1
The subject of test [4] is Echinochloa crus-galli (ECHCG). The description is as above. The conditions noted are these: 312 h, Rate 1,000 g/ha, post-emergence spray, evaluated after 13 days (100=total damage to plant; 0=no damage to plant), read-out: Percentage damage caused to weed species, post-emergence, ECHCG. In outline:
as §1

Test [5] concerns Solanum nigrum (SOLNI). The description is as above. The note with it: 312 h, Rate 1,000 g/ha, post-emergence spray, evaluated after 13 days (100=total damage to plant; 0=no damage to plant), read-out: Percentage damage caused to weed species, post-emergence, SOLNI. Put shortly: as §1
The subject of test [6] is Alopecurus myosuroides (ALOMY). The description is as above. The note with it: 312 h, Rate 1,000 g/ha, post-emergence spray, evaluated after 13 days (100=total damage to plant; 0=no damage to plant), read-out: Percentage damage caused to weed species, post-emergence, ALOMY. In outline:
as §1

In test [7] the test system is Amaranthus retoflexus (AMARE). The test is described as follows: Pre-emergence biological efficacy, glasshouse pot test. The note with it: Amaranthus retroflexus, 312 h; pre-emergence, rate 1,000 g/ha, evaluated after 13 days (100=total damage to plant; 0=no damage); read-out: Percentage damage caused to weed species, AMARE. Put shortly: (§2)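 Seeds sown in standard soil in pots, held one day in glasshouse (24/16 °C day/night, 14 h light, 65% humidity), then sprayed with aqueous solution from acetone/water (50:50) formulation with 0.5% Tween 20 at 1000 or 250 g/ha. Damage scored after 13 days (0 = none, 100 = total).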

Test [8] concerns Ipomea hederaceae (IPOHE). The description is as above. The note with it: Ipomoea hederacea, 312 h; pre-emergence, rate 1,000 g/ha, evaluated after 13 days (100=total damage to plant; 0=no damage); read-out: Percentage damage caused to weed species, IPOHE. In outline: as §2
Test [9] has as its system Setaria faberi (SETFA). The test is described as above. The note with it: 312 h, pre-emergence, rate 1,000 g/ha, evaluated after 13 days (100=total damage to plant; 0=no damage), read-out: Percentage damage caused to weed species, SETFA. Put shortly: as §2
Test [10] relates to Echinochloa crus-galli (ECHCG). Described as above. The note with it: 312 h, pre-emergence, rate 1,000 g/ha, evaluated after 13 days (100=total damage to plant; 0=no damage), read-out: Percentage damage caused to weed species, ECHCG. Put shortly:
as §2

The subject of test [11] is Solanum nigrum (SOLNI). The description is as above. The note with it: 312 h, pre-emergence, rate 1,000 g/ha, evaluated after 13 days (100=total damage to plant; 0=no damage), read-out: Percentage damage caused to weed species, SOLNI. Put shortly: as §2
The test system of test [12] is Alopecurus myosuroides (ALOMY). The description is as above. The note with it: 312 h, pre-emergence, rate 1,000 g/ha, evaluated after 13 days (100=total damage to plant; 0=no damage), read-out: Percentage damage caused to weed species, ALOMY. Put shortly: as §2

For the compound `COC(=O)c1nc(-c2ccc(Cl)cc2C)nc(NCc2ccco2)c1Cl` [Compound 213-48, 5-Chloro-2-(4-chloro-2-methylphenyl)-4-(furan-2-yl-methyl-amino)-6-methoxy-carbonylpyrimidine], the pest or weed control at 1000 g/ha in [1] was 100%; in test [2], 0%; in the test on Setaria faberi (SETFA) [3], 10%; in test [4], 0%; in the test with Solanum nigrum (SOLNI) [5] it was 10%; in test [6], 0%. For the same compound, the pest or weed control at 1000 g/ha worked out at 70% in test [7]; 0% in [8]; 10% in the test on Setaria faberi (SETFA) [9]; 0% in test [10]; 0% in the test on Solanum nigrum (SOLNI) [11]; 10% in [12].

With `COC(=O)c1nc(-c2ccc(Cl)cc2OC)nc(NCc2ccco2)c1Cl` [Compound 214-48, 5-Chloro-2-(4-chloro-2-methoxyphenyl)-4-(furan-2-yl-methyl-amino)-6-methoxy-carbonylpyrimidine], the pest or weed control at 1000 g/ha in test [1] came to 100%; in [2], 30%; with Setaria faberi (SETFA) [3], 10%; in test [4], 0%; with Solanum nigrum (SOLNI) [5] it was 70%; in test [6] it was 30%. The pest or weed control at 1000 g/ha came out at 100% in test [7]; 0% in test [8]; 10% with Setaria faberi (SETFA) [9]; 0% in test [10]; 20% with Solanum nigrum (SOLNI) [11]; 20% in test [12].

For the compound `COC(=O)c1nc(-c2ccc(Cl)c(C)c2)nc(NCc2ccco2)c1Cl` [Compound 216-48, 5-Chloro-2-(4-chloro-3-methylphenyl)-4-(furan-2-ylmethyl-amino)-6-methoxy-carbonylpyrimidine], the pest or weed control at 1000 g/ha in test [1] was determined as 100%; in test [2], 30%; with Setaria faberi (SETFA) [3] it was 10%; in test [4], 30%; with Solanum nigrum (SOLNI) [5], 60%; in test [6], 10%. In addition, the pest or weed control at 1000 g/ha was 30% in test [7]; 0% in test [8]; 30% with Setaria faberi (SETFA) [9]; 30% in test [10]; 30% in the test on Solanum nigrum (SOLNI) [11]; 0% in [12].

On to `COC(=O)c1nc(-c2ccc(Cl)c(C(F)(F)F)c2)nc(NCc2ccco2)c1Cl` [Compound 217-48, 5-Chloro-2-(4-chloro-3-trifluoromethyl-phenyl)-4-(furan-2-ylmethylamino)-6-methoxycarbonyl-pyrimidine], for which the pest or weed control at 1000 g/ha in test [1] came to 80%; in [2] it was 30%; in the test on Setaria faberi (SETFA) [3], 20%; in [4], 0%; with Solanum nigrum (SOLNI) [5], 70%; in [6] it was 10%. The pest or weed control at 1000 g/ha stood at 20% in test [7]; 0% in [8]; 20% in the test with Setaria faberi (SETFA) [9]; 0% in test [10]; 50% in the test with Solanum nigrum (SOLNI) [11]; 20% in test [12].

Turning to `COC(=O)c1nc(-c2ccc(Cl)cc2F)nc(NCc2ccco2)c1Cl` [Compound 218-48, 5-Chloro-2-(4-chloro-2-fluorophenyl)-4-(furan-2-yl-methyl-amino)-6-methoxy-carbonylpyrimidine], the pest or weed control at 1000 g/ha in [1] came out at 100%; in test [2] it was 90%; with Setaria faberi (SETFA) [3] it was 80%; in [4], 60%; in the test with Solanum nigrum (SOLNI) [5] it was 90%; in [6], 60%. Also, the pest or weed control at 1000 g/ha stood at 100% in test [7]; 50% in [8]; 70% with Setaria faberi (SETFA) [9]; 50% in [10]; 90% in the test with Solanum nigrum (SOLNI) [11]; 70% in [12].

With `COC(=O)c1nc(-c2ccc(Cl)c([N+](=O)[O-])c2)nc(NCc2ccco2)c1Cl` [Compound 219-48, 5-Chloro-2-(4-chloro-3-nitrophenyl)-4-(furan-2-yl-methyl-amino)-6-methoxycarbonyl-pyrimidine], the pest or weed control at 1000 g/ha in test [1] came to 20%; in [2], 0%; with Setaria faberi (SETFA) [3], 20%; in test [4] it was 0%; with Solanum nigrum (SOLNI) [5], 30%; in test [6] it was 0%. Also, the pest or weed control at 1000 g/ha in [7] turned out to be 20%; in test [8], 0%; in the test with Setaria faberi (SETFA) [9], 0%; in test [10], 0%; in the test on Solanum nigrum (SOLNI) [11], 0%; in [12], 0%.

As to `COC(=O)c1nc(-c2ccc(Cl)cc2C(F)(F)F)nc(NCc2ccco2)c1Cl` [Compound 220-48, 5-Chloro-2-(4-chloro-2-trifluoromethyl-phenyl)-4-(furan-2-ylmethylamino)-6-methoxycarbonyl-pyrimidine], the pest or weed control at 1000 g/ha in test [1] was 40%; in test [2] it was 10%; in the test with Setaria faberi (SETFA) [3], 0%; in test [4] it was 0%; in the test on Solanum nigrum (SOLNI) [5] it was 20%; in test [6], 20%. For the same compound, the pest or weed control at 1000 g/ha was 20% in [7]; 0% in test [8]; 0% in the test with Setaria faberi (SETFA) [9]; 0% in [10]; 0% with Solanum nigrum (SOLNI) [11]; 0% in test [12].

Consider `COC(=O)c1nc(-c2ccc(Cl)c(C#N)c2)nc(NCc2ccco2)c1Cl` [Compound 221-48, 5-Chloro-2-(4-chloro-3-cyanophenyl)-4-(furan-2-yl-methyl-amino)-6-methoxy-carbonylpyrimidine], for which the pest or weed control at 1000 g/ha in test [1] turned out to be 80%; in test [2] it was 40%; with Setaria faberi (SETFA) [3], 30%; in test [4], 30%; in the test with Solanum nigrum (SOLNI) [5], 80%; in test [6] it was 10%. Moreover, the pest or weed control at 1000 g/ha amounted to 60% in test [7]; 0% in test [8]; 0% in the test on Setaria faberi (SETFA) [9]; 0% in test [10]; 0% in the test with Solanum nigrum (SOLNI) [11]; 0% in test [12].
